Data reported in ChEMBL document CHEMBL3112451, “Synthesis of 2',3',4'-trihydroxyflavone (2-D08), an inhibitor of protein sumoylation” (Bioorg Med Chem Lett, 2014).
Calls of active or inactive are those of the source. The calls are words filed in the database; no cut-off is given here.

Target: SUMO E1/E2 (Homo sapiens) (UniProt Q9UBE0+Q9UBT2+P63279)
Experiment: Inhibition of purified SUMO E1/E2 (unknown origin)-mediated conjugation of His6-SUMO-1 to fluorescent peptide FL-AR at 30 uM after 90 mins by microfluidic electrophoretic mobility shift assay
Format: protein-complex assay

Row | inhibition | SMILES
1 | Active | O=C(/C=C(\O)c1ccccc1O)c1ccc(O)c(O)c1O
2 | inactive | O=c1cc(-c2ccccc2O)oc2c(O)c(O)ccc12
3 | Active | O=c1cc(-c2ccc(O)c(O)c2O)oc2ccccc12
